Reference: patent publication US9193673B2, “Derivatives of mesalazine, process of their preparation and their use in the treatment of intestinal inflammatory diseases” (SOFAR SPA, priority 2010, dated 2015)
Values joined by “and” are separate entries in the source; they are usually repeats but may differ in a detail not shown here. Equal values may be shown once. “Also recorded” adds a separate entry of the source.

Columns and labels:
[1] = Stability of the compound (IV) in storage at 25° C. (60% RH) and at 40° C. (75% RH); assay type: physicochemical; conditions: for Titre % Mean / Titre %: 3 months; for Titre % Mean: mean of samples; for Titre %: single samples
Experimental: The object of such study is the evaluation of the stability of the compound (IV) kept at a temperature equivalent to 25° C. (60% RH) and at 40° C. (75% RH). In particular, such study aims at evaluating the titre of the compound (IV) in the stability test at 25° C. (60% RH) at 3, 6, 9, 12, 18, 24, 36, 48, 60 months and in the stability test accelerated at 40° C. (75% RH) at 3, 6, 9, 12 months.
The compound (IV) is divided into 10 Eppendorfs numbered from 1 to 10, containing about 50 mg of product and stored in a cellar at 25° C. 60% RH.
Other 4 Eppendorfs numbered from 11 to 14, containing about 50 mg of product are introduced into an oven at a temperature equivalent to 40° C. 75% RH.

[2] = Stability in rat plasma (hydrolysis by plasma esterases); assay type: in vitro ADME
Experimental: (§1) Such study is conducted with the aim of evaluating possible hydrolysis of the compound (IV) by the plasma esterases. The percentage of hydrolysis of the compound (IV) is compared to that of known reference standards.

[3] = Stability in human plasma (hydrolysis by plasma esterases); assay type: in vitro ADME
Experimental: as §1

[4] = Permeability on the Caco2 cellular line; assay type: in vitro ADME; conditions: human, Caco-2, Caco2
Experimental: (§2) Such study is conducted with the aim of evaluating the capacity of the molecule to permeate the intestinal epithelium and be absorbed thereby evaluating the Papp (apparent permeability coefficient). The Papp of the compound (IV) is compared to that of the known reference standards.

Caco2 cellular line = assay: Permeability on the Caco2 cellular line; assay type: in vitro ADME
Experimental: as §2

[5] = Stability in murine intestinal homogenate; assay type: in vitro ADME, rat
Experimental: Such study is conducted with the aim of evaluating the stability of the compound (IV) in intestinal homogenate.
(§3) The stability of the compound (IV) is compared to that of known reference standards.

[6] = Hydrolysis in rat intestine preserved in different conditions; assay type: in vitro ADME
Experimental: Such study is conducted with the aim of surveying the stability of the compound (IV) in rat intestine homogenate preserved in different conditions: frozen at […] and at −80° C.
as §3

DSS-induced colitis = DSS-induced colitis model; assay type: in vivo; conditions: DSS 3% C57BL/6 mice
From the text: Experimental colitis models, such as the dextran sodium sulphate (DSS) model, are routinely available in our laboratory (1, 2). […] DSS-induced inflammation of the colon originates in the distal colon, progressing to involve the whole colon and in severe cases the caecum. In addition, the inflammation is confined to the mucosa and is generally not transmural. Furthermore, DSS-induced inflammation is not dependent on the presence of any specific intestinal bacterial flora.
Colon inflammation has been induced in C57BL/6 mice by the administration of DSS in the drinking water at concentrations of 3%, for 5 days.
Different parameters have been measured to test the efficacy of the selected compounds which are: • Clinical evaluation: daily recording weight and clinical activity (anal bleeding, presence of diarrhoea). This parameter has been quantified as percentage of body weight and DAI (Disease Activity Index) relating to anal bleeding and presence of diarrhoea. The lower the DAI is, the lower the anal bleeding is, thus better the therapeutic effect is. • Endoscopic evaluation: mice underwent endoscopy at the end of the treatment. This step is very important as most of the drugs used in human inflammatory bowel disease aim to achieve mucosal healing. • Histological colitis assessment: mice have been sacrificed at the end of the treatment, colons have been removed and histopathological analysis has been performed to assess the extent of tissue damage and recruitment of immune cells.
The therapeutic effect has been evaluated with different experimental procedures (a)-c)) representing either the active phase (a)) or the remission phase (b)-c)) of an intestinal inflammatory disease at different doses: • a) treatment of acute phase at 200 mg/kg/day • b) treatment of remission phase at 50 mg/kg/day • c) treatment of remission phase at 100 mg/kg/day […]

CCCC(=O)Oc1ccc(N)cc1C(=O)O.Cl [Compound (IV), 5-amino-2-(butyryloxy)benzoic acid]
Stability in storage ([1]; 25° C. 60% RH and 40° C. 75% RH): does not seem to be subjected to considerable modifications; also recorded: stable in storage | Titre % Mean ([1]; 25° C. 60% RH): 98.1% | Titre % ([1]; 25° C. 60% RH): 98.2% and 98.1% | Titre % Mean ([1]; 40° C. 75% RH): 101.2% | Titre % ([1]; 40° C. 75% RH): 99.8% and 102.6% | Titre ([1]; time t=0): 99.3% | % Residue at 60 min ([2]; Rat plasma, 60 min): 8.5 ± 2.0% | Hydrolysis in plasma ([2]; murine plasma): high hydrolysis percentage | % hydrolysed ([2]; murine plasma, after 1 hour of incubation): 91.5% | % Residue at 60 min ([3]; Human plasma, 60 min): 32.7 ± 2.6% | Hydrolysis in plasma ([3]; human plasma): high hydrolysis percentage | % hydrolysed ([3]; human plasma, after 1 hour of incubation): 67.3% | Papp A→B ([4]; Apical (pH 6.5) → Basolateral (pH 7.4), read-out: Papp A→B (nm/sec) Mean ± SD): 0.59 ± 0.12 ×10⁻⁶ cm/s | Papp B→A ([4]; B→A, read-out: Papp B→A (nm/sec) Mean ± SD): 0.24 ± 0.03 ×10⁻⁶ cm/s | A→B Mean mass balance % (Caco2 cellular line; A→B, Caco2): 69% | B→A Mean mass balance % (Caco2 cellular line; B→A, Caco2): 99% | BA/AB ratio (Caco2 cellular line; Caco2): 0.41 | Permeability (Caco2 cellular line; Caco2): poor permeability | BA/AB ratio (Caco2 cellular line; Caco2, listed as compound (IV)): < 1 | Substrate of P-gp (glycoprotein P) (Caco2 cellular line; from BA/AB ratio, Caco2): does not seem to be a substrate of P-gp | Permeability class (Caco2 cellular line; through the basolateral membrane of the Caco2 cell line): low | Stability in the rat intestine ([5]; rat intestinal homogenate): very unstable in the rat intestine; also recorded: quickly metabolised in the rat intestine | Residue percentage ([5]; rat intestinal homogenate, 25 μM, 30 min): 9.8 ± 1.1% | Residue percentage ([5]; rat intestinal homogenate, 25 μM, 1 hr): 12.2 ± 1.6% | Residue percentage ([5]; rat intestinal homogenate, 25 μM, 2 hrs): 10.1 ± 4.4% | Residue percentage ([5]; rat intestinal homogenate, 25 μM, 4 hrs): 24.5 ± 1.3(*) % | Residue percentage ([5]; rat intestinal homogenate, 50 μM, 30 min): 5.6 ± 0.6% | Residue percentage ([5]; rat intestinal homogenate, 50 μM, 1 hr): 4.4 ± 1.1% | Residue percentage ([5]; rat intestinal homogenate, 50 μM, 2 hrs): 7.3 ± 1.0% | Residue percentage ([5]; rat intestinal homogenate, 50 μM, 4 hrs): 5.5 ± 1.1% | Hydrolysis ([5]; tested at two concentrations (25 and 50 μM)): 90-95% | Metabolism in fresh rat intestine homogenate ([6]; fresh homogenate): metabolised quickly | Stability in rat intestine (residue %) ([6]; fresh homogenate, 15 min): 0.030 ± 0.015% | Stability in rat intestine (residue %) ([6]; fresh homogenate, 30 min): 0.031 ± 0.004% | Stability in rat intestine (residue %) ([6]; fresh homogenate, 60 min): 0.047 ± 0.021% | Stability in rat intestine (residue %) ([6]; homogenate 4° C., 15 min): 0.046 ± 0.004% | Stability in rat intestine (residue %) ([6]; homogenate 4° C., 30 min): 0.046 ± 0.022% | Stability in rat intestine (residue %) ([6]; homogenate 4° C., 60 min): 0.064 ± 0.008% | Stability in rat intestine (residue %) ([6]; homogenate −80° C., 15 min): 0.024 ± 0.007% | Stability in rat intestine (residue %) ([6]; homogenate −80° C., 30 min): 0.034 ± 0.001% | Stability in rat intestine (residue %) ([6]; homogenate −80° C., 60 min): 0.470 ± 0.012% | Stability in rat intestine (residue %) ([6]; intestine −80° C., 15 min): 0.145 ± 0.029% | Stability in rat intestine (residue %) ([6]; intestine −80° C., 30 min): 0.091 ± 0.038% | Stability in rat intestine (residue %) ([6]; intestine −80° C., 60 min): 0.098 ± 0.002% | Therapeutic efficiency (DAI, endoscopic and histological scores) (DSS-induced colitis; a) acute (active) phase, 200 mg/kg/day orally): comparable therapeutic efficiency | Therapeutic activity (DAI, endoscopic and histological scores) vs 5-ASA, butyric acid, and their combined administration (DSS-induced colitis; b) remission phase, 50 mg/kg/day orally): better therapeutic activity | Therapeutic activity (DAI, endoscopic and histological scores) vs 5-ASA, butyric acid, and their combined administration (DSS-induced colitis; c) remission phase, 100 mg/kg/day orally): better therapeutic activity
